Assay results reported in patent US12162872B2, “Cycloalkylurea derivative” (Sumitomo Pharma Co., Ltd., priority 2019, dated 2024).

What follows are compounds tested against T1, Human orexin receptor type 2 (Homo sapiens, UniProt O43614) (assay: Test 1: Evaluation of agonist activity for orexin receptor type 2 (aequorin luminescence, intracellular calcium mobilization in CHO cells)). Details: relative percentage of luminescence for the luminescence (100%) of Orexin A (100 pM); CHO cells transiently expressing human orexin receptor type 2 and apoaequorin; Orexin A Lot. 641114.
T1 construct: expressed in transfected cells; host or cells: CHO cells (transient expression)
T1 sequence (O43614 1-444): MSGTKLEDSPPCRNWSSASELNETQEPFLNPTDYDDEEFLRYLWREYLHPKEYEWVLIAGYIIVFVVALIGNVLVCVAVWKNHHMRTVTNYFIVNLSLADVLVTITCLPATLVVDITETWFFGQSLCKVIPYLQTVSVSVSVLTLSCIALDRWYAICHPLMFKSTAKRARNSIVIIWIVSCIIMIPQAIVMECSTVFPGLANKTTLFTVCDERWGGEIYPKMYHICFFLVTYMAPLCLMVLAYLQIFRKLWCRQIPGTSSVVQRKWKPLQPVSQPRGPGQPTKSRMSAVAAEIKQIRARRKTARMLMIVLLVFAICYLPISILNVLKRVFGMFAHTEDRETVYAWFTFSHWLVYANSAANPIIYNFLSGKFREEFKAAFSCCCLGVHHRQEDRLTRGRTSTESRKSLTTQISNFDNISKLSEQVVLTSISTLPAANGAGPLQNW
Format: cell-based
Procedure: Test 1: Evaluation of Agonist Activity for Orexin Receptor Type 2
Human orexin receptor type 2 and apoaequorin were transiently expressed in CHO cells, and the agonist activity was evaluated based on intracellular calcium mobilization with ligand stimulation. The CHO cells transiently-expressed human orexin receptor type 2 and apoaequorin were seeded on a 384-well plate by 2,000 cells/well, and then incubated for 16-22 hours. After the plate was returned to room temperature, Coelenterazine hcp (final concentration: 1 μM) was added to the plate, and the plate was allowed to stand at room temperature for 2 hours. And then, Orexin A (PEPTIDE INSTITUTE, INC., Lot. 641114) or each test compound was added to the plate, and the luminescence of the cells was measured with FDSS7000 (Hamamatsu Photonics K.K.), wherein Orexin A and each test compound were dissolved in DMSO (final concentration: 0.1%), and diluted with a buffer (Hanks, 20 mM HEPES, 0.1% BSA). The agonist activity of each test compound for orexin receptor type 2 was calculated as relative percentage of luminescence for the luminescence (100%) of Orexin A (100 pM).

Compound	agonist activity (%)
CC(C)N1CCN([C@H]2CCCC(F)(F)[C@@H]2NC(=O)N2CCC(C)(c3noc([C@@H]4C[C@@H]4C)n3)CC2)CC1 [Example 69, N-{(1R,6S)-2,2-difluoro-6-[4-(propan-2-yl)piperazin-1-yl]cyclohexyl}-4-methyl-4-{5-[(1R,2S)-2-methylcyclopropyl]-1,2,4-oxadiazol-3-yl}piperidine-1-carboxamide]	161
CCN1CCN([C@H]2CCCC[C@H]2NC(=O)N2CCC(c3ccc(C)cc3)CC2)CC1 (racemic) [Example 2, rac-N-[(1R,2S)-2-(4-ethylpiperazin-1-yl)cyclohexyl]-4-(4-methylphenyl)piperidine-1-carboxamide]	58
CCN1CCN([C@H]2CCCC[C@@H]2NC(=O)N2CCC(c3ccc(C)cc3)CC2)CC1 (racemic) [Example 17, rac-N-[(1S,2S)-2-(4-Ethylpiperazin-1-yl)cyclohexyl]-4-(4-methylphenyl)piperidine-1-carboxamide]	72
CC(C)N1CCN([C@H]2CCCC(F)(F)[C@@H]2NC(=O)N2CCC(C)(c3cc(C4CC4)on3)CC2)CC1 [Example 25, 4-(5-cyclopropyl-1,2-oxazol-3-yl)-N-{(1R,6S)-2,2-difluoro-6-[4-(propan-2-yl)piperazin-1-yl]cyclohexyl}-4-methylpiperidine-1-carboxamide]	165
CCc1nc(C2(C)CCN(C(=O)N[C@@H]3[C@@H](N4CCN(C(C)C)CC4)CCCC3(F)F)CC2)no1 (racemic) [Example 28, rac-N-{(1R,6S)-2,2-difluoro-6-[4-(propan-2-yl)piperazin-1-yl]cyclohexyl}-4-(5-ethyl-1,2,4-oxadiazol-3-yl)-4-methylpiperidine-1-carboxamide]	190
CC(C)c1ccc(C2=CCCCC2NC(=O)N2CCC(C)(c3cc(C4CC4)on3)CC2)cn1 (racemic) [Example 15, rac-4-(5-cyclopropyl-1,2-oxazol-3-yl)-4-methyl-N-{2-[6-(propan-2-yl)pyridin-3-yl]cyclohex-2-en-1-yl}piperidine-1-carboxamide]	62
Cc1cnc(C2CCN(C(=O)N[C@@H]3[C@@H](N4CCN(C(C)C)CC4)CCCC3(F)F)CC2)nc1 (racemic) [Example 54, rac-N-{(1R,6S)-2,2-difluoro-6-[4-(propan-2-yl)piperazin-1-yl]cyclohexyl}-4-(5-methylpyrimidin-2-yl)piperidine-1-carboxamide]	146
Cc1ccc(C2(C)CCN(C(=O)N[C@@H]3[C@@H](N4CCN(C(C)C)CC4)CCCC3(F)F)CC2)cc1 (racemic) [Example 58, rac-N-{(1R,6S)-2,2-difluoro-6-[4-(propan-2-yl)piperazin-1-yl]cyclohexyl}-4-methyl-4-(4-methylphenyl)piperidine-1-carboxamide]	150
CC(C)N1CC[C@@H](O[C@H]2CCCC(F)(F)[C@@H]2NC(=O)N2CCC(C)(c3noc(C4CC4)n3)CC2)C1 [Example 64, 4-(5-cyclopropyl-1,2,4-oxadiazol-3-yl)-N-[(1R,6S)-2,2-difluoro-6-{[(3R)-1-(propan-2-yl)pyrrolidin-3-yl]oxy}cyclohexyl]-4-methylpiperidine-1-carboxamide]	204
Cc1ccc(C2(C)CCN(C(=O)N[C@@H]3[C@@H](N4CCN(C(C)C)CC4)CCCC3(F)F)CC2)cc1 [Example 49, N-{(1R,6S)-2,2-difluoro-6-[4-(propan-2-yl)piperazin-1-yl]cyclohexyl}-4-methyl-4-(4-methylphenyl)piperidine-1-carboxamide]	151
CC(C)N1CCN([C@H]2CCCC(F)(F)[C@@H]2NC(=O)N2CCC(C)(c3nsc(C4CC4)n3)CC2)CC1 [Example 43, 4-(5-cyclopropyl-1,2,4-thiadiazol-3-yl)-N-{(1R,6S)-2,2-difluoro-6-[4-(propan-2-yl)piperazin-1-yl]cyclohexyl}-4-methylpiperidine-1-carboxamide]	146
CC(C)N1CCN([C@H]2CCCC(F)(F)[C@@H]2NC(=O)N2CCC(C)(c3noc(C4CC4)n3)CC2)CC1 (racemic) [Example 19, rac-4-(5-Cyclopropyl-1,2,4-oxadiazol-3-yl)-N-{(1R,6S)-2,2-difluoro-6-[4-(propan-2-yl)piperazin-1-yl]cyclohexyl}-4-methylpiperidine-1-carboxamide]	167
Cc1ccc(C2CCN(C(=O)N[C@@H]3[C@@H](N4CCN(C(C)C)CC4)CCCC3(F)F)CC2)nc1 (racemic) [Example 50, rac-N-{(1R,6S)-2,2-difluoro-6-[4-(propan-2-yl)piperazin-1-yl]cyclohexyl}-4-(5-methylpyridin-2-yl)piperidine-1-carboxamide]	154
CC(C)N1CCN([C@H]2CCCC(F)(F)[C@@H]2NC(=S)N2CCC(C)(c3noc(C4CC4)n3)CC2)CC1 [Example 80, 4-(5-cyclopropyl-1,2,4-oxadiazol-3-yl)-N-{(1R,6S)-2,2-difluoro-6-[4-(propan-2-yl)piperazin-1-yl]cyclohexyl}-4-methylpiperidine-1-carbothioamide]	178
Cc1cnc(C2CCN(C(=O)N[C@@H]3[C@@H](N4CCN(C(C)C)CC4)CCCC3(F)F)CC2)c(F)c1 (racemic) [Example 51, rac-N-{(1R,6S)-2,2-difluoro-6-[4-(propan-2-yl)piperazin-1-yl]cyclohexyl}-4-(3-fluoro-5-methylpyridin-2-yl)piperidine-1-carboxamide]	149
CC(C)N1CCN([C@@H]2CCCC(F)(F)[C@H]2NC(=O)N2CCC(C)(c3cc(C4CC4)on3)CC2)CC1 [Example 22, 4-(5-cyclopropyl-1,2-oxazol-3-yl)-N-{(1S,6R)-2,2-difluoro-6-[4-(propan-2-yl)piperazin-1-yl]cyclohexyl}-4-methylpiperidine-1-carboxamide]	163
CC(C)N1CC[C@@H](O[C@H]2CCCC(F)(F)[C@@H]2NC(=O)N2CCC(C)(c3noc([C@@H]4C[C@@H]4F)n3)CC2)C1 [Example 73, N-[(1R,6S)-2,2-difluoro-6-{[(3R)-1-(propan-2-yl)pyrrolidin-3-yl]oxy}cyclohexyl]-4-{5-[(1S,2S)-2-fluorocyclopropyl]-1,2,4-oxadiazol-3-yl}-4-methylpiperidine-1-carboxamide]	185
CC(C)N1CCN([C@H]2CCCC(F)(F)[C@@H]2NC(=O)N2CCC(C)(c3ccc(C(F)F)cc3)CC2)CC1 (racemic) [Example 59, rac-4-[4-(difluoromethyl)phenyl]-N-{(1R,6S)-2,2-difluoro-6-[4-(propan-2-yl)piperazin-1-yl]cyclohexyl}-4-methylpiperidine-1-carboxamide]	164
CC(C)N1CCN([C@H]2CCCC(F)(F)[C@@H]2NC(=O)N2CCC(C)(c3ncc(C4CC4)s3)CC2)CC1 (racemic) [Example 48, rac-4-(5-cyclopropyl-1,3-thiazol-2-yl)-N-{(1R,6S)-2,2-difluoro-6-[4-(propan-2-yl)piperazin-1-yl]cyclohexyl}-4-methylpiperidine-1-carboxamide]	156
CC(C)N1CCN([C@H]2CCCC(F)(F)[C@@H]2NC(=O)N2CCC(C)(C3CCC(F)(F)CC3)CC2)CC1 (racemic) [Example 30, rac-4-(4,4-difluorocyclohexyl)-N-{(1R,6S)-2,2-difluoro-6-[4-(propan-2-yl)piperazin-1-yl]cyclohexyl}-4-methylpiperidine-1-carboxamide]	128
Cc1ccc(C2CCN(C(=O)N[C@H]3CCCC[C@@H]3N3CCN(C(C)C)CC3)CC2)cc1 (racemic) [Example 1, rac-4-(4-Methylphenyl)-N-{(1S,2S)-2-[4-(propan-2-yl)piperazin-1-yl]cyclohexyl}piperidine-1-carboxamide]	137
CC(C)N1CCN([C@H]2CCCC(F)(F)[C@@H]2NC(=O)N2CCC(C)(c3csc(C4CC4)n3)CC2)CC1 (racemic) [Example 47, rac-4-(2-cyclopropyl-1,3-thiazol-4-yl)-N-{(1R,6S)-2,2-difluoro-6-[4-(propan-2-yl)piperazin-1-yl]cyclohexyl}-4-methylpiperidine-1-carboxamide]	163
CO[C@H]1CCC[C@H](N2CCN(C(C)C)CC2)[C@H]1NC(=O)N1CCC(c2ccc(C)cc2)CC1 (racemic) [Example 4, rac-N-{(1R,2S,6S)-2-methoxy-6-[4-(propan-2-yl)piperazin-1-yl]cyclohexyl}-4-(4-methylphenyl)piperidine-1-carboxamide]	62
